Like-named read-outs stand apart in the source and are kept apart here.
How the values were obtained:
α-glucosidase [1] = assay: α-Glucosidase inhibition activity assay (p-NPG); assay type: biochemical, Saccharomyces cerevisiae; conditions: 1 U/mL enzyme, pH 6.8, 37 °C
From the text: The Folin–Ciocalteu phenol reagent and chemicals used for the antioxidant activity assay were purchased from Aladdin Industrial Corporation (Shanghai, China). Phenolic standards, trolox, p-Nitrophenyl-α-D-glucopyranoside (p-NPG, > 99.8%), porcine pancreatic α-amylase (13 U/mg), and α-glucosidase (≥ 58 U/mg solid) from Saccharomyces cerevisiae were all purchased from Sigma-Aldrich (St. Louis, MO, USA). Analytical-grade materials were purchased from Guangzhou Reagent Co. (Guangzhou, China). Formic acid and acetonitrile used for the HPLC analysis were of chromatography grade. Water was purified by the Milli-Q (Millipore, MA, USA) system and filtered through membranes with a pore size of 0.22 μm before use.
The inhibitory activity of α-glucosidase was performed as the previous reported method with modifications. Briefly, 100 μL of the extracts’ dilutions and 100 μL of 1 U/mL α-glucosidase in 0.1 M phosphate buffer solution (pH 6.8) was mixed and pre-incubated at 37 °C for 10 min. Then, 100 μL of 5 mM p-NPG solution was added, and the reaction solution was incubated for another 20 min. The reaction was terminated by adding 500 μL of 0.2 M Na2CO3 solution. The absorbance at 405 nm was recorded. […] The inhibitory potency (%) was calculated by Equation (3). (3) α-Glucosidase inhibitory potency (%) = [1−ΔAs/ΔAc]×100 where ΔAs = Aextract+enzyme − Aextract, ΔAc = Abuffer+enzyme − Abuffer.

[2] = parameters: method as in Malinda et al. (2017) [34]; conditions: ref Malinda et al. (2017) [34]; cited from earlier work
α-glucosidase [3] = conditions: cited from earlier work
[4] = DPPH radical scavenging activity assay; conditions: extracts made with 50% methanol
Experimental: DPPH assay was measured based on the method described earlier. The absorbance at 517 nm was recorded by a microplate reader (SpectraMax M5 Molecular Device, CA, USA). Trolox or Vc solution (5–100 μg/mL) were served as positive controls. […] (1) DPPH radical scavenging activity (%) = (1−As−Ab/Ac)×100 where As = the absorbance of the sample extracts with DPPH solution, Ab = the absorbance of the sample extracts without DPPH solution, Ac = the absorbance of DPPH solution.

[5] = Hydroxyl (OH^−) radical scavenging activity assay; conditions: extracts made with 50% methanol
Experimental: The scavenging activity of OH[…] radicals was measured based on the method described by Liu et al., 2017 [19]. The reaction mixture included 100 μL of the extracts’ dilutions, 100 μL of 6 mM […] solution, and 100 μL of 2.4 mM H2O2. After 10 min of incubation at 25°C, the mixture was incubated with 100 μL of 6 mM salicylic acid at 25 °C for 30 min, then the absorbance at 510 nm was measured. A Trolox or Vc solution (5–100 μg/mL) served as the positive control.

[6] = target: T1, porcine pancreatic α-amylase (Sus scrofa, UniProt P00690); assay: α-Amylase inhibition activity assay (starch/DNS); assay type: biochemical; conditions: 0.5 mg/mL enzyme, pH 6.8, 37 °C
T1 construct: purchased Sigma-Aldrich
T1 sequence (P00690 16-511): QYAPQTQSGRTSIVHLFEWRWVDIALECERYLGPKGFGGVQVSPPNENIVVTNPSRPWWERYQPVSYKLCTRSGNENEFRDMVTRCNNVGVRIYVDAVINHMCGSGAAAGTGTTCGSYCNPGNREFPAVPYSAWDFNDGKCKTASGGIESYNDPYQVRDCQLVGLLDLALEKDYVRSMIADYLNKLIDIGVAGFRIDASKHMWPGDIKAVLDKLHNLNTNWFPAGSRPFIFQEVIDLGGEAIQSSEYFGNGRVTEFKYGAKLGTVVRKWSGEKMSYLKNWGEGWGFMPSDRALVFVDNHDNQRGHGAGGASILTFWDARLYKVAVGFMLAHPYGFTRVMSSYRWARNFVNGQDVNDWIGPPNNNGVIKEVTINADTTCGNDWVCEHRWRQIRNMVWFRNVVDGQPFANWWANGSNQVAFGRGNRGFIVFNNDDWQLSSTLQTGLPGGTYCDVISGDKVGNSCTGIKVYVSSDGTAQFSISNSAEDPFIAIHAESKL
From the text: The Folin–Ciocalteu phenol reagent and chemicals used for the antioxidant activity assay were purchased from Aladdin Industrial Corporation (Shanghai, China). […] Analytical-grade materials were purchased from Guangzhou Reagent Co. (Guangzhou, China). Formic acid and acetonitrile used for the HPLC analysis were of chromatography grade. Water was purified by the Milli-Q (Millipore, MA, USA) system and filtered through membranes with a pore size of 0.22 μm before use.

[7] = ABTS cation radical scavenging activity assay; conditions: extracts made with 50% methanol
Experimental: ABTS assay was determined according to the method of Wang et al. (2017). The absorbance at […] was recorded by the microplate reader. Trolox or Vc solution (5–100 μg/mL) was served as positive controls. The scavenging activity (%) was calculated by Equation (2). (2) ABTS^+ radical scavenging activity (%) = (1−As−Ab/Ac)×100 where As = the absorbance of the extracts with ABTS^+ solution, Ab = the absorbance of the extracts without ABTS^+ solutionl, Ac = the absorbance of ABTS^+ solution.

[8] = constituents in raspberry, ref Zhang et al. (2010) [39]

SMILES | α-glucosidase inhibition IC50 (α-glucosidase [1]) | DPPH radical scavenging activity IC50 [2] | α-glucosidase inhibitory capacity (α-glucosidase [3]; [8]) | DPPH radical scavenging IC50 [4] | OH^− free radical scavenging IC50 [5] | further results
O=C(O)c1cc(O)c(O)c(O)c1 [GA, Gallic acid] | 590.34 ± 15.71 µg/mL | 2.24 µg/mL | strong | – | – | –
O=C1O[C@H]([C@@H](O)CO)C(O)=C1O [Vc, ascorbic acid] | – | – | – | 16.80 ± 1.31 µg/mL | 19.83 ± 0.37 µg/mL | –
O=c1oc2c(O)c(O)cc3c(=O)oc4c(O)c(O)cc1c4c23 [EA, Ellagic acid] | 976.32 ± 41.72 µg/mL | 4.80 µg/mL | weakest | – | – | –
Oc1cc(O)c2c(c1)O[C@H](c1ccc(O)c(O)c1)[C@@H](O)[C@@H]2c1c(O)cc(O)c2c1O[C@H](c1ccc(O)c(O)c1)[C@@H](O)[C@@H]2c1c(O)cc(O)c2c1O[C@H](c1ccc(O)c(O)c1)[C@@H](O)C2 [PC, Procyanidin C3] | 93.37 ± 5.79 µg/mL | – | – | – | – | α-amylase inhibition IC50 [6]: 92.31 ± 3.51 µg/mL; α-glucosidase inhibitory capacity (α-glucosidase [3]; ref Wang et al. (2018) [38]): strong
Cc1c(C)c2c(c(C)c1O)CCC(C)(C(=O)O)O2 (stereo not drawn) [Trolox] | – | – | – | 39.90 ± 0.67 µg/mL | 33.91 ± 1.82 µg/mL | ABTS^+ free radical scavenging IC50 [7]: 41.50 ± 1.97 µg/mL
C[C@@H]1O[C@@H](OC[C@H]2O[C@@H](Oc3c(-c4ccc(O)c(O)c4)oc4cc(O)cc(O)c4c3=O)[C@H](O)[C@@H](O)[C@@H]2O)[C@H](O)[C@H](O)[C@H]1O [rutin, Rutin] | – | – | strong | – | – | –
